Patent US20230348376A1 (TEIJIN PHARMA LIMITED, priority 2020, published 2023)

Key:
[1] = biological target: T1, human VDR (Homo sapiens, UniProt P11473); experiment: Evaluation of VDR transcription activity in human osteoblasts (HOS cells), luciferase reporter; conditions: Activity (EC50, VDR transcription activity), HOS cells transfected with human VDR, human RXRα and DR3 luciferase reporter; 21 hours
T1 sequence (P11473 1-427): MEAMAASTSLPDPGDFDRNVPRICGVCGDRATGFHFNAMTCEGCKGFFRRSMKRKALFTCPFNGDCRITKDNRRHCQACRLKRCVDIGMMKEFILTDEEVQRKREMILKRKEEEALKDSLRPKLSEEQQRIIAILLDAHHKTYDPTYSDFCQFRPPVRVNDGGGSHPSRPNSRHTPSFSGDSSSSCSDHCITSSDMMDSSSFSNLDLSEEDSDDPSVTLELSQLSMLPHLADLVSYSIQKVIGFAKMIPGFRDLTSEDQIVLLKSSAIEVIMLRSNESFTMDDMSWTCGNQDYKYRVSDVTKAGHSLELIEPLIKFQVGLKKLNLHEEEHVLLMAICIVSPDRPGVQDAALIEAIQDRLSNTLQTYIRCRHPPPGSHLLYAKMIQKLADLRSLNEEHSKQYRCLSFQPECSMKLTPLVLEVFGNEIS
T1 sequence (P19793 1-462 partner): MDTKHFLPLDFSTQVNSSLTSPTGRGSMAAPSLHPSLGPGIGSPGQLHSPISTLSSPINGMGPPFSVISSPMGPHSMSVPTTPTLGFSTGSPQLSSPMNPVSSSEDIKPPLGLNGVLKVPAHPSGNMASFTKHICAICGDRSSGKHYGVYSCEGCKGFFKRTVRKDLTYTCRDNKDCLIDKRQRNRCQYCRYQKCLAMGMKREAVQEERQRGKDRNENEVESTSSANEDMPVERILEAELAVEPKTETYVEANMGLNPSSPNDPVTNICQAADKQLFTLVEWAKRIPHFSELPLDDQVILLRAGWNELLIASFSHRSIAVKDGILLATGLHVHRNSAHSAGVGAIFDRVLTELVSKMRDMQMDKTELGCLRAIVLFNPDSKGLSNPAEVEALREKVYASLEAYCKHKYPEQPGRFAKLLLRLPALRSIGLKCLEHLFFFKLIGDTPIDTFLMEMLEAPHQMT

[2] = system: rat oligodendrocyte progenitor cells; experiment: Promotive activity of rat oligodendrocyte progenitor cell differentiation-1 (MBP gene expression, mRNA); type: cell-based; conditions: Rattus norvegicus, Oligodendrocyte progenitor cell, 96 h, read-out: promotive activity at T3 base (MBP gene expression; DMSO 0%, T3 100%), 4 days, MBP/β actin mRNA
Method: Regarding vitamin D derivatives, which was confirmed to act on the vitamin D receptor (VDR) in Example 352, the promotive activity of oligodendrocyte progenitor cell (OPC) differentiation was evaluated by MBP gene expression (mRNA).
A forebrain obtained from SD rat (Charles River Japan, 1 day old) was crushed with 70 μm Cell Strainer (Falcon #352350), and a cell suspension was prepared by collecting the cells in oligodendrocyte progenitor cell separation medium (20% FBS/2 mM Glutamax (Gibco #35050-061)/i mM sodium pyruvate (Gibco #11360-070)/1% penicillin-streptomycin (Invitrogen #15140-122)/DMEM (Gibco #11960-044)). The cell suspension was seeded in a poly-D-lysine coated T75 flask (Thermo Fisher Scientific #132704) and cultured for about 2 weeks. After culturing, the flask was shaken using a rotary shaker ([…] #WB-101SRC) for about 1 hour (37° C., 100 rpm), and the supernatant was discarded to remove microglia. Subsequently, oligodendrocyte progenitor cell separation medium was added to the flask, and the mixture was similarly shaken for about 22 hours (37° C., 200 rpm), and the supernatant was collected to prepare oligodendrocyte progenitor cells.
The oligodendrocyte progenitor cell prepared was suspended in a differentiation medium (2% B27 (Thermo Fisher Scientific, Inc. #17504-044)/1% penicillin-streptomycin (Invitrogen Corporation #15140-122)/10 ng/mL CNTF (PeproTech Inc. #AF-450-13)/DMEM (Gibco #11960-044)), and seeded on a 96-well plate coated with poly-L-ornithine (FUJIFILM Wako Pure Chemical Corporation #163-27421) under the condition of 0.65×10^4 cells/well, and on a 384-well plate under the condition of 2×10^3 cells/well using an automatic dispensing system (LABCYTE #Echo555). […] After culturing, the cells seeded on the 96-well plate were subjected to immunostaining against MBP using following methods: fixation (4% paraformaldehyde solution, 30 minutes, room temperature), PBS washing, membrane permeation treatment (0.1% Trion X-100 (SIGMA #X100-100ML)/PBS, 3 minutes, room temperature), blocking (3% BSA (SIGMA #A9647-10G)/PBS, 1 hour, room temperature), primary antibody reaction (MBP antibody (abcam plc #ab40390), 2.5 μg/mL, 4° C., 24 hours), PBS washing, secondary antibody reaction (Alexa488 anti-rabbit IgG (Thermo Fisher Scientific, Inc. #A-11034), 5 μg/mL, room temperature, 1 hour), PBS washing, and nuclear staining (Hoechst33342 (DOJINDO #NU043), 10 μg/mL, room temperature, 5 minutes). Subsequently, images of each well were acquired using a fluorescence microscope (KEYENCE CORPORATION #BZ-X800), the number of MBP-positive cells and Hoechst 33342-positive cells were measured using an image analysis application (KEYENCE CORPORATION #BZ-X800 Analyzer), and then the ratio (the number of MBP-positive cells/the number of Hoechst33342-positive cells) was calculated. The cells seeded on the 384-well plate were subjected to real-time PCR using Cells-to-CT 1-Step TaqMan Kit (Thermo Fisher Scientific, Inc. #A25602) and QuantStudio 12K Flex Real-Time PCR System (Thermo Fisher Scientific, Inc. #4472380). The experiment was performed in accordance with the protocol attached to the kit. MBP (Thermo Fisher Scientific, Inc. #Assay ID Rn00690616_ml) and β actin (Thermo Fisher Scientific, Inc. #Assay ID Rn00667869_ml) were used as primers, and the expression levels of each were measured and the ratio (MBP/β actin) was calculated.

Work on `C[C@H](CN1CCCC(O)(C(F)F)C1)[C@H]1CC[C@H]2/C(=C/C=C3C[C@@H](O)C[C@H](O)C3)CCC[C@]12C` (single isomer, unassigned) [Compound C035a] yielded an EC50 [1] of under 1 nM and an activation at 1 µM [2] of at least 20%.

Work on `COC1(C)CCCN(C[C@@H](C)[C@H]2CC[C@H]3/C(=C/C=C4C[C@@H](O)C[C@H](O)C4)CCC[C@]23C)C1` (single isomer, unassigned) [Compound C045a] yielded an EC50 [1] of 10 to 100 nM and an activation at 1 µM [2] of at least 20%.

`C=C1C(O)CC(=C/C=C2\CCC[C@]3(C)[C@@H]([C@H](C)CN4CC[C@H](OC(F)(F)F)C4)CC[C@@H]23)C[C@H]1O` (stereo in doubt) [Compound B067, (1R,3S)-5-(2-((1R,3aS,7aR,E)-7a-methyl-1-((S)-1-((S)-3-(trifluoromethoxy)pyrrolidin-1-yl)propan-2-yl)octahydro-4H-inden-4-ylidene)ethylidene)-2-methylenecyclohexane-1,3-diol] gave an EC50 [1] of 1 to 10 nM and an activation at 1 µM [2] of at least 20%.

Work on `C[C@H](CN1CC[C@@H](OC(F)(F)F)C1)[C@H]1CC[C@H]2/C(=C/C=C3CC(O)C[C@H](O)C3)CCC[C@]12C` (stereo in doubt) [Compound B070, (1R,3S)-5-(2-((1R,3aS,7aR,E)-7a-methyl-1-((S)-1-((R)-3-(trifluoromethoxy)pyrrolidin-1-yl)propan-2-yl)octahydro-4H-inden-4-ylidene)ethylidene)cyclohexane-1,3-diol] yielded an EC50 [1] of 10 to 100 nM and an activation at 1 µM [2] of at least 20%.

For `C=C1C(O)CC(=C/C=C2\CCC[C@]3(C)[C@@H]([C@H](C)CN4CC[C@](C)(O)C4)CC[C@@H]23)C[C@H]1O` (stereo in doubt) [Compound B073, (1R,3S)-5-(2-((1R,3aS,7aR,E)-1-((S)-1-((S)-3-hydroxy-3-methylpyrrolidin-1-yl)propan-2-yl)-7a-methyloctahydro-4H-inden-4-ylidene)ethylidene)-2-methylenecyclohexane-1,3-diol], the EC50 [1] was 1 to 10 nM and the activation at 1 µM [2] was at least 20%.

`C=C1/C(=C\C=C2/CCC[C@]3(C)[C@@H]([C@H](C)CCN4CCO[C@H](C)C4)CC[C@@H]23)C[C@@H](O)CC1O` (stereo in doubt) [Compound D047, (1R,3R,Z)-5-(2-((1R,3aS,7aR,E)-7a-methyl-1-((R)-4-((R)-2-methylmorpholino)butan-2-yl)octahydro-4H-inden-4-ylidene)ethylidene)-4-methylenecyclohexane-1,3-diol] showed an activation at 1 µM [2] of at least 20%.

For `C=C1/C(=C\C=C2/CCC[C@]3(C)[C@@H]([C@H](C)CCN4CCO[C@@H](C)C4)CC[C@@H]23)C[C@@H](O)CC1O` (stereo in doubt) [Compound D048, (1R,3R,Z)-5-(2-((1R,3aS,7aR,E)-7a-methyl-1-((R)-4-((S)-2-methylmorpholino)butan-2-yl)octahydro-4H-inden-4-ylidene)ethylidene)-4-methylenecyclohexane-1,3-diol], the activation at 1 µM [2] was at least 20%.

`C=C1/C(=C\C=C2/CCC[C@]3(C)[C@@H]([C@H](C)CCN4CCO[C@@H](C(F)F)C4)CC[C@@H]23)C[C@@H](O)C[C@@H]1O` [Compound D037, (1R,3 S,Z)-5-(2-((1R,3aS,7aR,E)-1-((R)-4-((R)-2-(difluoromethyl)morpholino)butan-2-yl)-7a-methyloctahydro-4H-inden-4-ylidene)ethylidene)-4-methylenecyclohexane-1,3-diol] showed an activation at 1 µM [2] of at least 20%.

In the case of `C=C1[C@H](O)CC(=C/C=C2\CCC[C@]3(C)[C@@H]([C@H](C)CCN4C[C@@H](C)OC[C@@H]4C)CC[C@@H]23)C[C@H]1O` [Compound D038, (1R,3R)-5-(2-((1R,3aS,7aR,E)-1-((R)-4-((2R,5S)-2,5-dimethylmorpholino)butan-2-yl)-7a-methyloctahydro-4H-inden-4-ylidene)ethylidene)-2-methylenecyclohexane-1,3-diol], the activation at 1 µM [2] is reported as at least 20%.
